Our source for the Max reduction and IC50 values is ChEMBL document CHEMBL1125561, “Inhibition of human leukocyte elastase by N-substituted peptides containing alpha,alpha-difluorostatone residues at P1” (J Med Chem, 1992).

Numbered stars: 1 amine (or outer) side, 2 acyl side, 3 side chain; on linkers, the order of the positions; unused ones are H or OH. Square brackets hold non-standard residues; d marks the D form. Peptide text beside a SMILES is read from it. * marks the point of attachment. X1 = CC(C)[C@H](N[*:1])C(=O)C(F)(F)C(=O)[*:2]; N(Indan-2-yl)Gly = O=C(O)CNC1Cc2ccccc2C1; Cbz = O=C(OCc1ccccc1)*

Assay [1] deals with Cricetinae gen. sp. The experiment in a line: Inhibition of Elastase-induced pulmonary Hemorrhage(EPH) in Hamsters at a dose of 20 ug/mL. The class given is functional, Cricetulus griseus.
The target in the next assay is T1, Neutrophil elastase (Homo sapiens, UniProt P08246).
T1 sequence (P08246 whole entry): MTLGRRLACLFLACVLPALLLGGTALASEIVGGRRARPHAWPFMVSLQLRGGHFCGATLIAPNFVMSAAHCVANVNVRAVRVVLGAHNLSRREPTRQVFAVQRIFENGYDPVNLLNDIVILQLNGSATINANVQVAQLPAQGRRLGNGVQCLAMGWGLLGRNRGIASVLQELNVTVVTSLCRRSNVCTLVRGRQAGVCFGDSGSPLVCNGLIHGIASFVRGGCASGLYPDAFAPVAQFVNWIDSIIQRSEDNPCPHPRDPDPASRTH
The experiment in a line: Inhibitory activity against human leukocyte elastase (HLE) at pH 7.5.

Assay [2] concerns Cricetinae gen. sp. The experiment in a line: Inhibition of Elastase-induced pulmonary Hemorrhage(EPH) in Hamsters at a dose of 10 ug/mL. The class given is functional, Cricetulus griseus.
The test system of assay [3] is Cricetinae gen. sp. The experiment in a line: Inhibition of Elastase-induced pulmonary Hemorrhage(EPH) in Hamsters at a dose of 3 ug/mL. The class given is functional, Cricetulus griseus.

Take `CCOC(=O)C(F)(F)C(=O)[C@H](CC(C)C)NC(=O)CN(C(=O)[C@@H](NC(=O)c1ccc(C(=O)NS(=O)(=O)c2ccc(Cl)cc2)cc1)C(C)C)C1Cc2ccccc2C1`: the Max reduction with Cricetinae gen. sp. [1] is 55.2%.

As to `COC(=O)[C@H](CCCCNC(=O)C(F)(F)C(=O)[C@@H](NC(=O)CN(C(=O)[C@@H](NC(=O)OCc1ccccc1)C(C)C)C1Cc2ccccc2C1)C(C)C)NC(C)=O`, the Max reduction in the assay on Cricetinae gen. sp. [1] turned out to be 7.6%.

With `CC(C)[C@H](NC(=O)OCc1ccccc1)C(=O)N(CC(=O)N[C@H](C(=O)C(F)(F)C(=O)O)C(C)C)C1Cc2ccccc2C1`, on Neutrophil elastase, the half-inhibitory concentration (IC50) is more than 5 µM. The compound also had a Max reduction with Cricetinae gen. sp. [1] of 55.8%.

As to `CCOC(=O)C(F)(F)C(=O)[C@H](Cc1ccccc1)NC(=O)CN(C(=O)[C@@H](NC(=O)c1ccc(C(=O)NS(=O)(=O)c2ccc(Cl)cc2)cc1)C(C)C)C1Cc2ccccc2C1`, the IC50 against Neutrophil elastase was more than 5 µM. The compound also registered a Max reduction with Cricetinae gen. sp. [2] of 12.2%.

Consider `CC(C)C(NC(=O)CN(C(=O)[C@@H](NC(=O)c1ccc(C(=O)NS(=O)(=O)c2ccc(Cl)cc2)cc1)C(C)C)C1Cc2ccccc2C1)C(=O)C(F)(F)F` (stereo partly specified), for which the Max reduction is 90.5% in the assay with Cricetinae gen. sp. [2] and 58.1% in the assay on Cricetinae gen. sp. [3].

Take `CCOC(=O)C(F)(F)C(=O)[C@@H](NC(=O)CN(C(=O)[C@@H](NC(=O)c1ccc(C(=O)NS(=O)(=O)c2ccc(Cl)cc2)cc1)C(C)C)C1Cc2ccccc2C1)C(C)C`: in the assay with Cricetinae gen. sp. [2], the Max reduction was 94.6%.

For the compound `CCOC(=O)C(F)(F)C(=O)[C@@H](NC(=O)CN(C(=O)[C@@H](NC(=O)OCc1ccccc1)C(C)C)C1Cc2ccccc2C1)C(C)C`, the Max reduction with Cricetinae gen. sp. [1] is 51.9%.

As to `CCOC(=O)CNC(=O)CNC(=O)C(F)(F)C(=O)[C@@H](NC(=O)CN(C(=O)[C@@H](NC(=O)OCc1ccccc1)C(C)C)C1Cc2ccccc2C1)C(C)C` (Cbz-V[N(Indan-2-yl)Gly][X1]GG-OEt), the Max reduction in the assay on Cricetinae gen. sp. [1] came out at 33.3%.

As a reminder, the IC50 is the concentration needed to halve the response being measured.
